According to publication PMC11378297, “Discovery and Profiling of New Multimodal Phenylglycinamide Derivatives as Potent Antiseizure and Antinociceptive Drug Candidates” (ACS Chemical Neuroscience, 2024):
Where two headings read alike, the source gives them in different places. Blank lines part the entries; values can stand above or below the molecule they belong to.

Experiments:
[1] = target: T1, Voltage-Gated Sodium channel hNav1.6 (Homo sapiens, UniProt Q9UQD0); assay: human sodium ion channel cell based automated patch clamp assay, hNav1.6
T1 construct: Eurofins Discovery (St. Charles, MO, USA)
T1 sequence (Q9UQD0 whole entry): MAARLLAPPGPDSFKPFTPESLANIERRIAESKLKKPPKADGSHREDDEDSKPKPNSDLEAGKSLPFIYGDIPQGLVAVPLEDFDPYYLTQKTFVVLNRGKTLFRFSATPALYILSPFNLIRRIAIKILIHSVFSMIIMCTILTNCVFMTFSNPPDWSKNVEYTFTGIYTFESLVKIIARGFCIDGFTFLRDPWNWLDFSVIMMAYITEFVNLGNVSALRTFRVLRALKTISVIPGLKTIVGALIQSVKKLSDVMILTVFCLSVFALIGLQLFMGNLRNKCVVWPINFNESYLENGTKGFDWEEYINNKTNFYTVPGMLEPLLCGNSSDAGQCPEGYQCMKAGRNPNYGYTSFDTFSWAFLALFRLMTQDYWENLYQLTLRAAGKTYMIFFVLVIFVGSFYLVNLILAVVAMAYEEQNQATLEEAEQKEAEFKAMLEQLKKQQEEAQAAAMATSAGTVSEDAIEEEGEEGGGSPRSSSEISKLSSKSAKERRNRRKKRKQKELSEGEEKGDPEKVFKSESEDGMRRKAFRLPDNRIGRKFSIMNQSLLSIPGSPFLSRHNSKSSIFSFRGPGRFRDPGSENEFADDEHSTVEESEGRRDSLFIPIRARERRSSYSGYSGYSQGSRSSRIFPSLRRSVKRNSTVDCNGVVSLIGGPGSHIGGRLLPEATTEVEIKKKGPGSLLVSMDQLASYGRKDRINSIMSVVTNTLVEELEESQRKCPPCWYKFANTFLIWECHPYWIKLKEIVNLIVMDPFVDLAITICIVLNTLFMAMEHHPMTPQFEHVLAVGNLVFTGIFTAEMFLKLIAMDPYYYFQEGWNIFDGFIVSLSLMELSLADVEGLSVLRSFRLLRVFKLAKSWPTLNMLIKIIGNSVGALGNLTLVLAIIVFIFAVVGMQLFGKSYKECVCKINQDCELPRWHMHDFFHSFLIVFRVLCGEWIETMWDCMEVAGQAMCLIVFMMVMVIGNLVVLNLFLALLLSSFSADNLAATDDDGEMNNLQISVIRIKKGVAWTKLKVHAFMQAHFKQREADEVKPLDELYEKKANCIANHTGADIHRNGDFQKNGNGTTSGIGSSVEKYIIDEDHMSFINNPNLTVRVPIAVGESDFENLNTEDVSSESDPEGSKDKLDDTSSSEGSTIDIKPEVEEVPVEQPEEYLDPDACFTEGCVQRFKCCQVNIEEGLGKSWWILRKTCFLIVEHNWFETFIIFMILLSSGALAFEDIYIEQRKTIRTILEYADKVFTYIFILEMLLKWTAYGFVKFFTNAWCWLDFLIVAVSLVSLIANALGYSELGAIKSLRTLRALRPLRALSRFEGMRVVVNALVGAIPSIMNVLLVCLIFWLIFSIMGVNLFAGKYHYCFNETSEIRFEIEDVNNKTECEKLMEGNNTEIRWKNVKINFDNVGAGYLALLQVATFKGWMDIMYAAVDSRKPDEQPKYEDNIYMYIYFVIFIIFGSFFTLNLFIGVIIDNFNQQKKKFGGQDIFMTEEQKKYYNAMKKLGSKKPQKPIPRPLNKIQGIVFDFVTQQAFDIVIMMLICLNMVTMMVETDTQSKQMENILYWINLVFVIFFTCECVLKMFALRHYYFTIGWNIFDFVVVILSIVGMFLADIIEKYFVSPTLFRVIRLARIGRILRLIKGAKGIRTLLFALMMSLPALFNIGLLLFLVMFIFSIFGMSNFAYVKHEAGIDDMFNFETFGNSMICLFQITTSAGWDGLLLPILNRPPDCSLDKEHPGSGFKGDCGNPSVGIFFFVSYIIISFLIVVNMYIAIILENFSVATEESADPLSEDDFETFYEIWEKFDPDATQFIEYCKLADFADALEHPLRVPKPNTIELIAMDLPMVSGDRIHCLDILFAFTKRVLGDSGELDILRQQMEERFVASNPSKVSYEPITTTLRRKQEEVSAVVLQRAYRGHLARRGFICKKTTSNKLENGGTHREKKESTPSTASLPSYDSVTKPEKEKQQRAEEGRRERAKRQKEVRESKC
Procedure: (§1) Therefore, as a part of the more detailed functional characterization using automated patch clamp method, we tested the influence of (R)-32 on sodium currents mediated by several Navx channels comprising 5 different human subunits, namely, Nav1.1, Nav1.2, Nav1.3, Nav1.6, and Nav1.7, which are involved in both seizure and/or pain modulation.[74],[80],[81] As summarized in Tables S4–S8, (R)-32 starting from 10 μM effectively and in concentration-dependent manner decreased sodium currents mediated by all aforementioned sodium channel subunits. Furthermore, (R)-32 appeared to bind exclusively to sodium channels that are in an inactivated state (see pulse 2 in Tables S4–S8), but not to the channels that are in an open state (pulse 1) (for additional details, see Supporting Information).
(§2) Human sodium ion channels cell based automated patch clamp assay
(§3) Human sodium ion channels cell based automated patch clamp assays: sodium channels exist in, a) a resting or closed state at -120 mV, b) a transient open state that inactivates to c) inactivated state at -10 mV. Sodium current inhibition within 1-2 ms of channel opening at 0 mV is open channel inhibition (pulse 1). In order to completely inactivate the sodium channels and facilitate inactivated state-dependent binding of the drug, the channels were kept at […] ( -10 mV) longer (pulsed for 500 ms) and then stepped back to -120 mV for 10 ms to recover from inactivation into resting or closed state (but the channels that had drug bound to them will not recover from inactivation and will not open) before stepping to -10 mV for 50 ms (pulse 2) to mea sure sodium channels that are available to open. The higher inhibition seen at pulse 2 is due to inactivated state -dependent inhibition. Pulse 1 and 2 are used to investigate drug binding to the open state and inactivated state of the Na channels, respectively. Each concentration of compound is applied for 5 minutes. The results obtained for (R)-32 are summerized in Tables S4–S8. […]
(§4) Compound Concentration Measurement % Inhibition
(§5) Data interpretation: Results showing inhibition greater than 50% are considered to represent significant effects of test compound and have been bolded for (R)-32 for better visualization. The studies were carried out in Eurofins Discovery (St. Charles, MO, USA).

[2] = target: T2, Voltage-Gated Sodium channel hNav1.7 (Homo sapiens, UniProt Q15858); assay: human sodium ion channel cell based automated patch clamp assay, hNav1.7
T2 construct: Eurofins Discovery (St. Charles, MO, USA)

[3] = target: T3, Voltage-Gated Sodium channel hNav1.2 (Homo sapiens, UniProt Q99250); assay: human sodium ion channel cell based automated patch clamp assay, hNav1.2
T3 construct: Eurofins Discovery (St. Charles, MO, USA)
T3 sequence (Q99250 whole entry): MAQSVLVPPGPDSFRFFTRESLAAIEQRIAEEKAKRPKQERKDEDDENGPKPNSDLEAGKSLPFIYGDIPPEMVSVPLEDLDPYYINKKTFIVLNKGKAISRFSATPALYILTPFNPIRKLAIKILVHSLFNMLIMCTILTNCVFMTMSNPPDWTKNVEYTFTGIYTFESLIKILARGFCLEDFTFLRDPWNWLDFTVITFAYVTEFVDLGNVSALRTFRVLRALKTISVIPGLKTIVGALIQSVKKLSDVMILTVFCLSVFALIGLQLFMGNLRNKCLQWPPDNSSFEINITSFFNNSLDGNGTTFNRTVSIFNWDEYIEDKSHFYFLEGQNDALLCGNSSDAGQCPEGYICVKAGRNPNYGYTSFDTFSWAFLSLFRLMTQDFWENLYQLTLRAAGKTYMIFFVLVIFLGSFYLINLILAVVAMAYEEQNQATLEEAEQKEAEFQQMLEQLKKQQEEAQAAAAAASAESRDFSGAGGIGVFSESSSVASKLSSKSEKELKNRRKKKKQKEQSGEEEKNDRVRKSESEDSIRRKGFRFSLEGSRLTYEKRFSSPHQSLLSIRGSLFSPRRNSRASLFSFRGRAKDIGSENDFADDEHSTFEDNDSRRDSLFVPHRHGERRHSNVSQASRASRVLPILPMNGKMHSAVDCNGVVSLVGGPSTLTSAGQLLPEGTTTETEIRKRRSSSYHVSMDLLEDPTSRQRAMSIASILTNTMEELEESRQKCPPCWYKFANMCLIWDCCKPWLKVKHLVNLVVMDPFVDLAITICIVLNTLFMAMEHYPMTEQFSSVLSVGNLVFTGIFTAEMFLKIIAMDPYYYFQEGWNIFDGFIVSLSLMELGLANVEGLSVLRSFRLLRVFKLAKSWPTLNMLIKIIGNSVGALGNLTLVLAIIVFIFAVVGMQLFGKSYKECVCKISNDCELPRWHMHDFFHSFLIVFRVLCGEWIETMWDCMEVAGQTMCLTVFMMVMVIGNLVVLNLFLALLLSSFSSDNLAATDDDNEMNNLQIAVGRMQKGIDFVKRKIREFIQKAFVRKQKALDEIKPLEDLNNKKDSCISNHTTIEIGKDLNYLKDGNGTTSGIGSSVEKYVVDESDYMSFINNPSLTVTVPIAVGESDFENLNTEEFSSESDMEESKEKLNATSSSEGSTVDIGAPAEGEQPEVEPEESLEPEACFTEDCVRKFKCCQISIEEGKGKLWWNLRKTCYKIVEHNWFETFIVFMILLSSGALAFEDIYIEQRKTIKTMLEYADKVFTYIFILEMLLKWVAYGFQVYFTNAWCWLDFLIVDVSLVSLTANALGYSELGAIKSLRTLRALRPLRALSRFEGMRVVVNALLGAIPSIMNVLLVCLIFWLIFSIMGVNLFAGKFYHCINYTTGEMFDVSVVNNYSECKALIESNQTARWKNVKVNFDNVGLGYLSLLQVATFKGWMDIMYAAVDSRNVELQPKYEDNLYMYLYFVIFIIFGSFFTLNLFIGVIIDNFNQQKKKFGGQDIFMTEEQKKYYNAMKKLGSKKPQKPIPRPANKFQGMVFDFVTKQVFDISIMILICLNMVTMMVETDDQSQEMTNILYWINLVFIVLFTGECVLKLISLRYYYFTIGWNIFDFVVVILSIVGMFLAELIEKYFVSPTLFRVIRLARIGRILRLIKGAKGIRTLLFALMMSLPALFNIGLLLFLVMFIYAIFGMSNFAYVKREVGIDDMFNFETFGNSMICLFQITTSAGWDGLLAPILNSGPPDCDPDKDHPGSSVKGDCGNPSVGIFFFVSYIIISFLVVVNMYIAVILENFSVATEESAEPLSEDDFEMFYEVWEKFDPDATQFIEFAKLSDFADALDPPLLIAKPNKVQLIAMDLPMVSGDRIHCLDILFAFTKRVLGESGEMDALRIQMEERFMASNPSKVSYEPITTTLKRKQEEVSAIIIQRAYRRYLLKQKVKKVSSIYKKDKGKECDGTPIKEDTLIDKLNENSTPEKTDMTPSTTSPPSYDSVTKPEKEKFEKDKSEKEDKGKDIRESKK
Procedure: as §1, §2, §3, §4, §5

[4] = test system: OXPT-induced tactile allodynia, mice; assay: oxaliplatin (OXPT)-induced peripheral neuropathy, von Frey test
TRPA1 (h) = target: T4, TRPA1 (h) (Homo sapiens, UniProt O75762); assay: TRPA1 (h) cell based antagonist calcium flux assay; conditions: HEK293, human recombinant HEK-293 cell, read-out: % inhibition of control agonist response
T4 construct: Eurofins
T4 sequence (O75762 whole entry): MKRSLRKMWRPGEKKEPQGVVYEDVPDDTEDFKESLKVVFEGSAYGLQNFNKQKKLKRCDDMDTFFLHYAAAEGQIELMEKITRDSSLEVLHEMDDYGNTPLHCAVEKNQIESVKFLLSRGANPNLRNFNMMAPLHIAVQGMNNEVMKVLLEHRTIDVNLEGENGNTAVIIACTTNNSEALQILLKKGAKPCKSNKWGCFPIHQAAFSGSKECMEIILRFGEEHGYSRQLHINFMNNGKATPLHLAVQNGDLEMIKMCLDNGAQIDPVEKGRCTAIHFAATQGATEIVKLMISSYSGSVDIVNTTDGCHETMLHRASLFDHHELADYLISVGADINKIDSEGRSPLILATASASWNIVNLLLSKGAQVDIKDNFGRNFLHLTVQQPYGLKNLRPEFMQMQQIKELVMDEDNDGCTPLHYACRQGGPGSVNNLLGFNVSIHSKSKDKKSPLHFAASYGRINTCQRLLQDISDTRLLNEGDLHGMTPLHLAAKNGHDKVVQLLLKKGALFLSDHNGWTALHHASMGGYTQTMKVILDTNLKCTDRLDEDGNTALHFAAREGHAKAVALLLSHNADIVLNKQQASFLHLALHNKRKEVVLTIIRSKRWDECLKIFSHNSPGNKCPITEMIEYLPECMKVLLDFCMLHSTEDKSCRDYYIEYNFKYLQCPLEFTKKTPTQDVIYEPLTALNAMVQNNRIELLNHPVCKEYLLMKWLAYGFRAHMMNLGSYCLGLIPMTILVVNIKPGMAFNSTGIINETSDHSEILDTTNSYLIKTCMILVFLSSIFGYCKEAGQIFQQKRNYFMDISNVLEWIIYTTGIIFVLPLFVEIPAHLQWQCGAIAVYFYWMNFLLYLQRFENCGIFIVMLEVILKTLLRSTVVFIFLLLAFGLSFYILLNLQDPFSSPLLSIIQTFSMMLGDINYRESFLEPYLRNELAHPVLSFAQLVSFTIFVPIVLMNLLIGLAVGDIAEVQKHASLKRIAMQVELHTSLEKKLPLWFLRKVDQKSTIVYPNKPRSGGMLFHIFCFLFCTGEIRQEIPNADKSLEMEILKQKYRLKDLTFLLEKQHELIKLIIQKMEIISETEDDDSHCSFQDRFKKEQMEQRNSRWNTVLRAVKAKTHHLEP
Procedure: Using previously described testing methodologies, binding/functional tests were conducted on a commercial basis at Eurofins Laboratories (Poitiers, France) and Eurofins Panlabs Discovery Services Taiwan, Ltd. (New Taipei City, Taiwan); see Table S9 for more information.
Table S9. Radioligand binding and functional assays. […]
TRPA1 (h) transient potential ion channel cell based antagonist calcium flux assay […]
Assays were performed commercially in Eurofins Laboratories (Poitiers, France) or Eurofins Panlabs Discovery Services
Taiwan, Ltd. (New Taipei City, Taiwan).

[5] = test system: fast voltage-gated sodium channels in rat prefrontal cortex pyramidal neurons; assay: patch-clamp of fast voltage-gated sodium currents in prefrontal cortex pyramidal neurons; type: cell-based; conditions: 10 μM, control = 1.0, n = 5
From the text: Figure 9 Compounds (R)-31 and (R)-32 inhibit fast voltage-gated sodium currents in prefrontal cortex pyramidal neurons. (A) Example sodium current recordings in control (black trace), after application of (R)-31 (blue trace) and after wash-out (red trace). Current traces were evoked by a rectangular voltage-step. (B) Influence of (R)-31 on sodium current is shown on an example neuron. Current traces were evoked once every 10 s. […] (C) Averaged, normalized maximal sodium current amplitudes in control, in the presence of (R)-31 and after wash-out. […] (D) Example sodium current recordings in control (black trace), after application of (R)-32 (blue trace) and after wash-out (red trace). Current traces were evoked by a rectangular voltage-step. (E) Influence of (R)-32 on sodium current is shown on an example neuron. Current traces were evoked once every 10 s. […] (F) Averaged, normalized maximal sodium current amplitudes in control, in the presence of (R)-32 and after wash-out.
Patch-clamp studies were carried out in prefrontal cortex pyramidal neurons. The methodology of slice preparation, preparation of dispersed cortical neurons, and sodium currents recording technique were the same as in our previous study.[99]

[6] = hNav1.6, Pulse 1 (open state), read-out: % Inhibition Mean
[7] = hNav1.6, Pulse 1 (open state), read-out: % Inhibition n1
[8] = hNav1.6, Pulse 1 (open state), read-out: % Inhibition n2
[9] = hNav1.6, Pulse 2 (inactivated state), read-out: % Inhibition Mean
[10] = hNav1.6, Pulse 2 (inactivated state), read-out: % Inhibition n1
[11] = hNav1.6, Pulse 2 (inactivated state), read-out: % Inhibition n2
[12] = hNav1.7, Pulse 1 (open state), read-out: % Inhibition Mean
[13] = hNav1.7, Pulse 1 (open state), read-out: % Inhibition n1
[14] = hNav1.7, Pulse 1 (open state), read-out: % Inhibition n2
[15] = hNav1.7, Pulse 2 (inactivated state), read-out: % Inhibition Mean
[16] = hNav1.7, Pulse 2 (inactivated state), read-out: % Inhibition n1
[17] = hNav1.7, Pulse 2 (inactivated state), read-out: % Inhibition n2
[18] = hNav1.2, Pulse 1 (open state), read-out: % Inhibition Mean
[19] = hNav1.2, Pulse 1 (open state), read-out: % Inhibition n1
[20] = hNav1.2, Pulse 1 (open state), read-out: % Inhibition n2
[21] = hNav1.2, Pulse 2 (inactivated state), read-out: % Inhibition Mean
[22] = hNav1.2, Pulse 2 (inactivated state), read-out: % Inhibition n1
[23] = hNav1.2, Pulse 2 (inactivated state), read-out: % Inhibition n2

- inhibition at 3 µM [1, 6]: 4.79%
- inhibition at 3 µM [1, 7]: 7.73%
- inhibition at 3 µM [1, 8]: 1.85%
- inhibition at 30 µM [1, 6]: 34.7%
- inhibition at 30 µM [1, 7]: 34.7%
- inhibition at 30 µM [1, 8]: 34.7%
- inhibition at 300 µM [1, 6]: 75%
- inhibition at 300 µM [1, 7]: 68.2%
- inhibition at 300 µM [1, 8]: 81.8%
- inhibition at 3 µM [1, 9]: 86.4%
- inhibition at 3 µM [1, 10]: 80.8%
- inhibition at 3 µM [1, 11]: 91.9%
- inhibition at 30 µM [1, 9]: 99.2%
- inhibition at 30 µM [1, 10]: 95.7%
- inhibition at 30 µM [1, 11]: 103%
- inhibition at 300 µM [1, 9]: 97.9%
- inhibition at 300 µM [1, 10]: 91.3%
- inhibition at 300 µM [1, 11]: 104%
- inhibition at 3 µM [2, 12]: 8.82%
- inhibition at 3 µM [2, 13]: 11.3%
- inhibition at 3 µM [2, 14]: 6.36%
- inhibition at 30 µM [2, 12]: 27.6%
- inhibition at 30 µM [2, 13]: 27.5%
- inhibition at 30 µM [2, 14]: 27.8%
- inhibition at 300 µM [2, 12]: 95.1%
- inhibition at 300 µM [2, 13]: 94.6%
- inhibition at 300 µM [2, 14]: 95.6%
- inhibition at 3 µM [2, 15]: 47.5%
- inhibition at 3 µM [2, 16]: 45.9%
- inhibition at 3 µM [2, 17]: 49.1%
- inhibition at 30 µM [2, 15]: 98.6%
- inhibition at 30 µM [2, 16]: 98%
- inhibition at 30 µM [2, 17]: 99.2%
- inhibition at 300 µM [2, 15]: 101%
- inhibition at 300 µM [2, 16]: 101%
- inhibition at 300 µM [2, 17]: 102%
- inhibition at 3 µM [3, 18]: -2.64%
- inhibition at 3 µM [3, 19]: 5.99%
- inhibition at 3 µM [3, 20]: -11.3%
- inhibition at 30 µM [3, 18]: 14%
- inhibition at 30 µM [3, 19]: 19%
- inhibition at 30 µM [3, 20]: 8.92%
- inhibition at 300 µM [3, 18]: 70%
- inhibition at 300 µM [3, 19]: 64.9%
- inhibition at 300 µM [3, 20]: 75.1%
- inhibition at 3 µM [3, 21]: 54.9%
- inhibition at 3 µM [3, 22]: 55.2%
- inhibition at 3 µM [3, 23]: 54.7%
- inhibition at 30 µM [3, 21]: 99.6%
- inhibition at 30 µM [3, 22]: 98.8%
- inhibition at 30 µM [3, 23]: 100%
- inhibition at 300 µM [3, 21]: 101%
- inhibition at 300 µM [3, 22]: 99.9%
- inhibition at 300 µM [3, 23]: 101%
SMILES: CCCCNc1ccc(C(=O)OCCN(C)C)cc1 [Tetracaine, reference compound]

SMILES: CC(=O)N[C@@H](C(=O)N1CCN(c2cccc(C(F)(F)F)c2)CC1)c1ccccc1 [(R)-31, (R)-N-(2-Oxo-1-phenyl-2-(4-(3-(trifluoromethyl)phenyl)piperazin-1-yl)ethyl)acetamide]
- pain threshold, early phase (3 h after OXPT), % of the initial value/baseline ([4]; 50 mg/kg i.p.): 114.5%
- pain threshold, early phase (3 h after OXPT), % of the initial value/baseline ([4]; 75 mg/kg i.p.): 93%
- pain threshold, late phase (7 days after OXPT), % of the baseline ([4]; 75 mg/kg i.p.): 87%
- pain threshold, early phase (3 h after OXPT), % of the initial value ([4]; 100 mg/kg i.p.): 78%
- pain threshold, late phase (7 days after OXPT), % of the baseline ([4]; 100 mg/kg i.p.): 77%
- inhibition at 10 µM (TRPA1 (h)): 13.3%
- averaged, maximal-normalized amplitude of voltage-gated sodium currents after application [5]: 0.66 ± 0.04
- averaged, maximal-normalized amplitude of voltage-gated sodium currents after wash-out [5]: 0.76 ± 0.05
